Structures are written as SMILES. Where only a bound is given, the exact number is not on record here.

The assay deals with T1, glucocorticoid receptor (Homo sapiens, UniProt P04150).
T1 construct: A549 cells stably transfected with a reporter gene; endogenous in cells; host or cells: A549 cells
T1 sequence (P04150 1-777): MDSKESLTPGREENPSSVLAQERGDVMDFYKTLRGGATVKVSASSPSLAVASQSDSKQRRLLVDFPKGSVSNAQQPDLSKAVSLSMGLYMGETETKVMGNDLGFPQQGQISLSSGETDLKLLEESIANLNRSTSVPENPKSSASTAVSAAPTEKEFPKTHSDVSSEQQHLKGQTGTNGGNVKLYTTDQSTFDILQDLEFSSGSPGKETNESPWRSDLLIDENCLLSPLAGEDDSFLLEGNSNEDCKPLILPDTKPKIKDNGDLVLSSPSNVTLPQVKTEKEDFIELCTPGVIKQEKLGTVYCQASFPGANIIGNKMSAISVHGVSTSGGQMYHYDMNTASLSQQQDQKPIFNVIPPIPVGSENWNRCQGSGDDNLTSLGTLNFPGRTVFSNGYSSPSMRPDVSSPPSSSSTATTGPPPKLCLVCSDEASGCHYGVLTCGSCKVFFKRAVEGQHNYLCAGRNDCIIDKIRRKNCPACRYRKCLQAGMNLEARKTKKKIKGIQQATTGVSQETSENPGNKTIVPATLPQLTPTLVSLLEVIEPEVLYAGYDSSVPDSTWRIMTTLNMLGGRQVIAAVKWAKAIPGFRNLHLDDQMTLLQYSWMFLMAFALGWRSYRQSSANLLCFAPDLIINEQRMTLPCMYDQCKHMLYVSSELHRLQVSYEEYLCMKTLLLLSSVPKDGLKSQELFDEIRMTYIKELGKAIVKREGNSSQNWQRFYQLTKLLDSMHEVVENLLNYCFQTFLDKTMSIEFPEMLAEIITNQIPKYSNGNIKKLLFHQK
Put plainly: Assay for transactivation activity of the glucocorticoid agonists (MMTV-LTR renilla luciferase reporter in A549 cells). Format: cell-based. The conditions noted are these: compound 6 hour at 37° C., read-out: maximal response relative to Dexamethasone (100%) (transactivation). On the procedure: Assay for Transactivation Activity of the Glucocorticoid Agonists
The functional assay based on that described by R. J. H. Austin et al., Eur Resp J. (2002), 20, 1386-1392 measures the ability of compounds to directly transactivate gene expression. A549 cells stably transfected with a reporter gene containing the glucocorticoid responsive region of the mouse mammary tumour virus long terminal repeat (MMTV-LTR) coupled to renilla luciferase were treated with test compounds at appropriate doses for 6 hour at 37° C. The amount of luciferase activity present within the cells is then determined by measuring the light emitted following incubation with a suitable substrate. Dose response curves were constructed from which EC50 values were estimated and from which maximal responses are calculated relative to Dexamethasone (100%).
Consider `CC[C@H]1CC[C@@H](OC(=O)O[C@]2(C(=O)OCF)[C@H](C)C[C@H]3[C@@H]4C[C@H](F)C5=CC(=O)C=C[C@]5(C)[C@@]4(F)[C@@H](O)C[C@@]32C)CC1` (relative stereo) [Example 36, Fluoromethyl(6α,11β,16α,17α)-17-({[(cis-4-ethylcyclohexyl)oxy]carbonyl}oxy)-6,9-difluoro-11-hydroxy-16-methyl-3-oxoandrosta-1,4-diene-17-carboxylate], for which the Emax is less than 25%.

As to `CC[C@H]1CC[C@H](OC(=O)O[C@]2(C(=O)OCF)[C@H](C)C[C@H]3[C@@H]4C[C@H](F)C5=CC(=O)C=C[C@]5(C)[C@@]4(F)[C@@H](O)C[C@@]32C)CC1` (relative stereo) [Example 37, Fluoromethyl(6α,11β,16α,17α)-17-({[(trans-4-ethylcyclohexyl)oxy]carbonyl}oxy)-6,9-difluoro-11-hydroxy-16-methyl-3-oxoandrosta-1,4-diene-17-carboxylate], the Emax was less than 25%.

For `CCC(CC)OC(=O)O[C@]1(C(=O)OCF)[C@H](C)C[C@H]2[C@@H]3C[C@H](F)C4=CC(=O)C=C[C@]4(C)[C@@]3(F)[C@@H](O)C[C@@]21C` [Example 4, Fluoromethyl(6α,11β,16α,17α)-17-({[(1-ethylpropyl)oxy]carbonyl}oxy)-6,9-difluoro-11-hydroxy-16-methyl-3-oxoandrosta-1,4-diene-17-carboxylate], the Emax is less than 25%.

For the molecule `C[C@@H]1C[C@H]2[C@@H]3C[C@H](F)C4=CC(=O)C=C[C@]4(C)[C@@]3(F)[C@@H](O)C[C@]2(C)[C@@]1(OC(=O)OCC(C)(C)C)C(=O)OCF` [Example 7, Fluoromethyl(6α,11β,16α,17α)-17-({[(2,2-dimethylpropyl)oxy]carbonyl}oxy)-6,9-difluoro-11-hydroxy-16-methyl-3-oxoandrosta-1,4-diene-17-carboxylate], the Emax is less than 25%.

Take `CC1CCCCC1OC(=O)OC1(C(=O)OCF)C(C)CC2C3CC(F)C4=CC(=O)C=CC4(C)C3(F)C(O)CC21C` (stereo not drawn) [Example 10, Fluoromethyl(6α,11β,16α,17α)-6,9-difluoro-11-hydroxy-16-methyl-17-[({[(1SR,2RS)-2-methylcyclohexyl]oxy}carbonyl)oxy]-3-oxoandrosta-1,4-diene-17-carboxylate]: the Emax was less than 25%.

For the molecule `CC(C)C1CCC(OC(=O)O[C@]2(C(=O)OCF)[C@H](C)C[C@H]3[C@@H]4C[C@H](F)C5=CC(=O)C=C[C@]5(C)[C@@]4(F)[C@@H](O)C[C@@]32C)CC1` (stereo partly drawn) [Example 11, Fluoromethyl(6α,11β,16α,17α)-6,9-difluoro-11-hydroxy-16-methyl-17-[({[4-(1-methylethyl)cyclohexyl]oxy}carbonyl)oxy]-3-oxoandrosta-1,4-diene-17-carboxylate], the Emax is less than 25%.

In the case of `CC1CC2C3CC(F)C4=CC(=O)C=CC4(C)C3(F)C(O)CC2(C)C1(OC(=O)OC1CC2CCC1C2)C(=O)OCF` (stereo not drawn) [Example 12, Fluoromethyl(6α,11β,16α,17α)-17-({[(1RS,2RS,4SR)-bicyclo[2.2.1]hept-2-yloxy]carbonyl}oxy)-6,9-difluoro-11-hydroxy-16-methyl-3-oxoandrosta-1,4-diene-17-carboxylate], the Emax is less than 25%.

With `C[C@@H]1C[C@H]2[C@@H]3C[C@H](F)C4=CC(=O)C=C[C@]4(C)[C@@]3(F)[C@@H](O)C[C@]2(C)[C@@]1(OC(=O)OC1CCCCCCC1)C(=O)OCF` [Example 16, Fluoromethyl(6α,11β,16α,17α)-17-{[(cyclooctyloxy)carbonyl]oxy}-6,9-difluoro-11-hydroxy-16-methyl-3-oxoandrosta-1,4-diene-17-carboxylate], the Emax was less than 25%.

With `C[C@@H]1C[C@H](C)C[C@H](OC(=O)O[C@]2(C(=O)OCF)[C@H](C)C[C@H]3[C@@H]4C[C@H](F)C5=CC(=O)C=C[C@]5(C)[C@@]4(F)[C@@H](O)C[C@@]32C)C1` [Example 17, Fluoromethyl(6α,11β,16α,17α)-17-[({[(1S,3R,5S)-3,5-dimethylcyclohexyl]oxy}carbonyl)oxy]-6,9-difluoro-11-hydroxy-16-methyl-3-oxoandrosta-1,4-diene-17-carboxylate], the Emax was less than 25%.

Take `COC1CCCCC1OC(=O)OC1(C(=O)OCF)C(C)CC2C3CC(F)C4=CC(=O)C=CC4(C)C3(F)C(O)CC21C` (stereo not drawn) [Example 18, Fluoromethyl(6α,11β,16α,17α)-6,9-difluoro-11-hydroxy-16-methyl-17-[({[(1RS,2RS)-2-(methyloxy)cyclohexyl]oxy}carbonyl)oxy]-3-oxoandrosta-1,4-diene-17-carboxylate]: the Emax was less than 25%.

Regarding `C[C@@H]1C[C@H]2[C@@H]3C[C@H](F)C4=CC(=O)C=C[C@]4(C)[C@@]3(F)[C@@H](O)C[C@]2(C)[C@@]1(OC(=O)OC1CCCC(C)(C)C1)C(=O)OCF` (stereo partly drawn) [Example 19, Fluoromethyl(6α,11β,16α,17α)-17-({[(3,3-dimethylcyclohexyl)oxy]carbonyl}oxy)-6,9-difluoro-11-hydroxy-16-methyl-3-oxoandrosta-1,4-diene-17-carboxylate], the Emax was less than 25%.

Turning to `CCC(OC(=O)O[C@]1(C(=O)OCF)[C@H](C)C[C@H]2[C@@H]3C[C@H](F)C4=CC(=O)C=C[C@]4(C)[C@@]3(F)[C@@H](O)C[C@@]21C)C1CCCC1` (stereo partly drawn) [Example 20, Fluoromethyl(6α,11β,16α,17α)-17-({[(1-cyclopentylpropyl)oxy]carbonyl}oxy)-6,9-difluoro-11-hydroxy-16-methyl-3-oxoandrosta-1,4-diene-17-carboxylate], the Emax was less than 25%.

On to `CC(OC(=O)O[C@]1(C(=O)OCF)[C@H](C)C[C@H]2[C@@H]3C[C@H](F)C4=CC(=O)C=C[C@]4(C)[C@@]3(F)[C@@H](O)C[C@@]21C)C1CCCC1` (stereo partly drawn) [Example 21, Fluoromethyl(6α,11β,16α,17α)-17-({[(1-cyclopentylethyl)oxy]carbonyl}oxy)-6,9-difluoro-11-hydroxy-16-methyl-3-oxoandrosta-1,4-diene-17-carboxylate], for which the Emax was less than 25%.

On to `CCCC(CCC)OC(=O)O[C@]1(C(=O)OCF)[C@H](C)C[C@H]2[C@@H]3C[C@H](F)C4=CC(=O)C=C[C@]4(C)[C@@]3(F)[C@@H](O)C[C@@]21C` [Example 22, Fluoromethyl(6α,11β,16α,17α)-6,9-difluoro-11-hydroxy-16-methyl-3-oxo-17-({[(1-propylbutyl)oxy]carbonyl}oxy)androsta-1,4-diene-17-carboxylate], for which the Emax was less than 25%.

As to `CC(OC(=O)O[C@]1(C(=O)OCF)[C@H](C)C[C@H]2[C@@H]3C[C@H](F)C4=CC(=O)C=C[C@]4(C)[C@@]3(F)[C@@H](O)C[C@@]21C)C(C)(C)C` (stereo partly drawn) [Example 23, Fluoromethyl(6α,11β,16α,17α)-6,9-difluoro-11-hydroxy-16-methyl-3-oxo-17-({[(1,2,2-trimethylpropyl)oxy]carbonyl}oxy)androsta-14-diene-17-carboxylate], the Emax is less than 25%.

With `C[C@@H]1C[C@H]2[C@@H]3C[C@H](F)C4=CC(=O)C=C[C@]4(C)[C@@]3(F)[C@@H](O)C[C@]2(C)[C@@]1(OC(=O)OCC1C(C)(C)C1(C)C)C(=O)OCF` [Example 24, Fluoromethyl(6α,11β,16α,17α)-6,9-difluoro-11-hydroxy-16-methyl-3-oxo-17-[({[(2,2,3,3-tetramethylcyclopropyl)methyl]oxy}carbonyl)oxy]androsta-1,4-diene-17-carboxylate], the Emax is less than 25%.

As to `CCCC(OC(=O)O[C@]1(C(=O)OCF)[C@H](C)C[C@H]2[C@@H]3C[C@H](F)C4=CC(=O)C=C[C@]4(C)[C@@]3(F)[C@@H](O)C[C@@]21C)C(C)C` (stereo partly drawn) [Example 25, Fluoromethyl(6α,11β,16α,17α)-6,9-difluoro-11-hydroxy-16-methyl-17-[({[1-(1-methylethyl)butyl]oxy}carbonyl)oxy]-3-oxoandrosta-1,4-diene-17-carboxylate], the Emax is less than 25%.

`C[C@@H]1C[C@H]2[C@@H]3C[C@H](F)C4=CC(=O)C=C[C@]4(C)[C@@]3(F)[C@@H](O)C[C@]2(C)[C@@]1(OC(=O)OC1C(C)(C)C1(C)C)C(=O)OCF` [Example 26, Fluoromethyl(6α,11β,16α,17α)-6,9-difluoro-11-hydroxy-16-methyl-3-oxo-17-({[(2,2,3,3-tetramethylcyclopropyl)oxy]carbonyl}oxy)androsta-1,4-diene-17-carboxylate]: the Emax is less than 25%.
